Source: patent US4361703A, “Para-amino(or nitro)phenyl N-acetylaminothioalkanoates” (priority 1977, dated 1982)

Legend:
in vitro = in vitro ADME, hog; conditions: pig, pH 7.2; tris buffer plus hog liver esterase, 30° C.
Method: (§1) PREPARATION OF TRIS BUFFER
(§2) 0.05 M tris buffer was made by dissolving 6.05 grams of tris-(hydroxymethyl)-methylamine in 1000 ml. of water, and adjusting the pH to 7.2 by the addition of 0.1 M HCl.
(§3) Standard solutions of 1×10^-4 M Compound A in analytical grade methanol (0.01 ml) were prepared, and tested in the simulated gastric and intestinal fluids, in tris buffer alone, in tris buffer with added hog liver esterase and also in serum. The solutions under test were incorporated in 1 ml. of each of the test fluids. A temperature of 30° C. was used for the assays involving the hog liver esterase, whereas a temperature of 37° C. was used for the assays involving the simulated gastric and intestinal fluids and the serum. After this, the mixture was allowed to stand and the supernatant liquid was spotted onto silica t.l.c. plates and developed in 90:10 chloroform/methanol. The mixture was then extracted with 5 mls of chloroform and the chloroform-containing mixture was filtered through phase-separating papers, which allow only the chloroform solution to pass through. The chloroform solution was also spotted onto silica t.l.c. plates and developed in 90:10 chloroform/methanol.

hog liver esterase = experiment: in vitro; type: in vitro ADME; conditions: 30° C.
Method: as §1, §2, §3

[1] = tested on: yeast-inflamed hind-paw pain-threshold; experiment: Analgesic activity, Randall-Selitto test in rats; type: in vivo, female Charles River rats; conditions: for P of pain-threshold (t-test versus control): 2 millimoles/kg oral
Method: (C)--Investigation of Analgesic Activity in Rats
A control group received only the gum tragacanth vehicle.
In order to evaluate the effect of the treatment upon pain-thresholds, pressure was applied both to the injected hind-paw and to the other non-injected hind-paw. The pain-threshold was noted as the pressure at which the rat flinched, measured using an Ugo Basile "Analgesimeter" for both hind-paws of each rat at intervals of 1 hour, 3 hours, 5 hours and 22 hours after the administration, and expressed as the percentage of the pain-threshold pressure for the injected (and thus inflamed) hind-paw as against the non-injected (and thus healthy) hind-paw.

[2] = tested on: yeast-induced hyperthermia; experiment: Antipyretic activity, yeast-induced hyperthermia test in rats; type: in vivo, male Charles River rats; conditions: compared with NAPA, equimolar basis, oral
Method: (D)--Investigation of Antipyretic Activity in Rats
Using the conventional procedure for the yeast-induced hyperthermia test, several groups of 10 male Charles River rats were given a subcutaneous injection of dried yeast. Immediately after the injection they were then medicated orally with respectively:
100 mg/kg of N-acetyl-para-aminophenol (NAPA);
80 mg/kg of NAPA+43.0 mg/kg of Compound A; and
60 mg/kg of NAPA+86.0 mg/kg of Compound A.
In the mixtures the amount of Compound A, N-acetyl-para-aminophenyl N'-acetyl-D,L-methionate, used was in each case equimolar with the 10%, 20% or 40% reduction in the amount of NAPA, so that all the medications were carried out at a level equivalent to 100 mg/kg of NAPA.

in vivo = conditions: mouse, in vivo, po
Method: (E)--Investigation of Acute Oral Toxicity in Mice
Charles River (CD-1 COBS) albino mice, 20-22 g in weight, were kept for some days in an air-conditioned animal house and fed with a standard diet (sterile VAR granules). They were fasted overnight before experiment, with water ad libitum. 15 Male mice and 15 female mice were used for each experiment.
N-Acetyl-para-aminophenol (NAPA) and N-acetyl-para-aminophenyl N'-acetyl-D,L-methionate (Compound A) were then administered to the mice, orally, as a suspension (shaken continuously with an electromagnetic agitator) in 5% gum arabic at a volume of 0.02 ml/g, either individually or in variously proportioned mixtures and at different dose levels, as shown in Table VII below.
A control group received only the 5% gum arabic vehicle.

[3] = Acute oral toxicity in rats; type: in vivo; conditions: rat, in vivo, po; for mortality at 24 h / mortality at 48 h / mortality at 72 h / mortality at 96 h / mortality at 120 h / mortality at 144 h / mortality at 168 h: Percentage Mortality
Method: (§4) (F)--Investigation of Acute Oral Toxicity in Rats
(§5) The investigation was carried out upon groups of 10 male and 10 female albino rats (Charles River CD-1 COBS) of 80-100 g body weight. […] Before the experiment they were fasted overnight, with water ad libitum. NAPA and Compound A were then administered orally by oesophageal intubation as suspensions (continuously shaken with an electromagnetic agitator) in 1% gum arabic at a volume of 2 ml/100 g body weight, and at dose levels of 1, 2, 4 and 8 g/kg. A control group received orally, under the same experimental conditions, merely 2 ml/100 g of the suspension vehicle. The rats were then kept under observation during seven days, while their behaviour patterns were observed and the mortality recorded

[4] = tested on: albino rats (Charles River CD-1 COBS); experiment: Acute oral toxicity in rats; type: in vivo
Method: as §4, §5

[5] = mouse, in vivo, po
Method: (A)--Investigation of Serum Concentrations in Mice
36 Charles River COBS mice (18 males and 18 females) weighing 30 g each were deprived of food for 16 hours before the trial but were given their usual drinking water. Three groups, each containing 6 males and 6 females, received a dosage of 1 ml/100 g body weight per mouse, orally by stomach tube, of a suspension in 1% gum tragacanth of respectively:
Group X: 500 mg/kg of N-acetyl-para-aminophenol
A blood sample was taken by throat-slitting from one male and one female from each Group at each study time, i.e. 1/2, 1, 2, 4 and 24 hours after the oral administration.
At times 1/2, 1, 2 and 4 hours, each serum sample was divided into three 0.1 ml trial samples for the following three determinations:

CSCCC(NC(C)=O)C(=O)Oc1ccc(NC(C)=O)cc1 (racemic) [Compound A, N-acetyl-para-aminophenyl N'-acetyl-D,L-methionate]
half-life (in vitro): ~475 min | effect of hog liver esterase on the rate of hydrolysis (hog liver esterase): no effect on the rate of hydrolysis | Percentage Pain-Threshold (injected vs non-injected paw) ([1]; 1 millimole/kg oral (NAPA 151, A 324 mg/kg), 1 hr. (3.5 hrs. from yeast)): 44 ± 3.8 Percentage | Percentage Pain-Threshold (injected vs non-injected paw) ([1]; 1 millimole/kg oral (NAPA 151, A 324 mg/kg), 3 hrs. (5.5 hrs. from yeast)): 41 ± 2.9 Percentage | Percentage Pain-Threshold (injected vs non-injected paw) ([1]; 1 millimole/kg oral (NAPA 151, A 324 mg/kg), 5 hrs. (7.5 hrs. from yeast)): 50 ±4.2 Percentage | Percentage Pain-Threshold (injected vs non-injected paw) ([1]; 1 millimole/kg oral (NAPA 151, A 324 mg/kg), 22 hrs. (24.5 hrs. from yeast)): 50 ± 2.4 Percentage | analgesic effect ([1]; 2 millimoles/kg level, oral): statistically-significant analgesic effect at the 2 millimoles/kg level, which is at least as great as N-acetyl-para-aminophenol (NAPA) | Percentage Pain-Threshold (injected vs non-injected paw) ([1]; 2 millimoles/kg oral (NAPA 302, A 648 mg/kg), 1 hr. (3.5 hrs. from yeast)): 53 ± 3.3 Percentage | Percentage Pain-Threshold (injected vs non-injected paw) ([1]; 2 millimoles/kg oral (NAPA 302, A 648 mg/kg), 3 hrs. (5.5 hrs. from yeast)): 54 ±3.2 Percentage | Percentage Pain-Threshold (injected vs non-injected paw) ([1]; 2 millimoles/kg oral (NAPA 302, A 648 mg/kg), 5 hrs. (7.5 hrs. from yeast)): 59 ± 2.7 Percentage | Percentage Pain-Threshold (injected vs non-injected paw) ([1]; 2 millimoles/kg oral (NAPA 302, A 648 mg/kg), 22 hrs. (24.5 hrs. from yeast)): 54 ± 1.9 Percentage | P of pain-threshold (t-test versus control) ([1]; 1 hr.): < 0.02 | P of pain-threshold (t-test versus control) ([1]; 3 hrs.): < 0.02 | P of pain-threshold (t-test versus control) ([1]; 5 hrs.): < 0.01 | P of pain-threshold (t-test versus control) ([1]; 22 hrs.): < 0.01 | antipyretic effect [2]: virtually identical upon an equimolar basis of comparison with that of the well-tried analgesic NAPA | LD50 at 24 h (in vivo): ≥ 4000 mg/kg | LD50 at 168 h (in vivo): ≥ 4000 mg/kg | LD50 at 24 h [3]: > 8000 mg/kg | LD50 at 168 h [3]: > 8000 mg/kg | mortality at 24 h ([3]; 1000 mg/kg): 0% | mortality at 48 h ([3]; 1000 mg/kg): 0% | mortality at 72 h ([3]; 1000 mg/kg): 0% | mortality at 96 h ([3]; 1000 mg/kg): 0% | mortality at 120 h ([3]; 1000 mg/kg): 0% | mortality at 144 h ([3]; 1000 mg/kg): 0% | mortality at 168 h ([3]; 1000 mg/kg): 0% | mortality at 24 h ([3]; 2000 mg/kg): 0% | mortality at 48 h ([3]; 2000 mg/kg): 0% | mortality at 72 h ([3]; 2000 mg/kg): 0% | mortality at 96 h ([3]; 2000 mg/kg): 0% | mortality at 120 h ([3]; 2000 mg/kg): 0% | mortality at 144 h ([3]; 2000 mg/kg): 0% | mortality at 168 h ([3]; 2000 mg/kg): 0% | mortality at 24 h ([3]; 4000 mg/kg): 0% | mortality at 48 h ([3]; 4000 mg/kg): 0% | mortality at 72 h ([3]; 4000 mg/kg): 0% | mortality at 96 h ([3]; 4000 mg/kg): 0% | mortality at 120 h ([3]; 4000 mg/kg): 0% | mortality at 144 h ([3]; 4000 mg/kg): 0% | mortality at 168 h ([3]; 4000 mg/kg): 0% | mortality at 24 h ([3]; 8000 mg/kg): 0% | mortality at 48 h ([3]; 8000 mg/kg): 0% | mortality at 72 h ([3]; 8000 mg/kg): 0% | mortality at 96 h ([3]; 8000 mg/kg): 0% | mortality at 120 h ([3]; 8000 mg/kg): 0% | mortality at 144 h ([3]; 8000 mg/kg): 0% | mortality at 168 h ([3]; 8000 mg/kg): 0% | toxicity compared with NAPA ([4]; oral, rats): far less toxic than NAPA | mortality (in words) ([4]; oral, rats, 1-8 g/kg): no mortality was recorded at any of the different dose levels | mortality (in words) ([4]; rat, in vivo, po): did not induce any mortality at dose levels up to 8 g/kg | serum "total" or "enzymatic" NAPA profile [5]: does not however give the acute peak observed at one-half an hour after the administration of NAPA+methionine
